What all share (format): in vivo
One test has as its system Magnaporthe grisea. Briefly: whole plant or invertebrate. As to conditions: Pyricularia oryzae, in Oryza sativa, read-out: Test A control value.
A further test concerns Botrytis cinerea. Kind of test: Test Example B: Gray mold on tomato. As to conditions: Gray mold on tomato, read-out: Test B control value.
The test system of a further test is Alternaia brassicicola. Kind of test: Test Example C: Alternaria sooty spot on cabbage. As to conditions: Brassica oleracea; Alternaria sooty spot on cabbage; read-out: Test C control value.
Test [1] has as its system Blumeria graminis f. sp. hordei. Kind of test: Test Example D: Powdery mildew on barley. Conditions: Powdery mildew on barley, read-out: Test D control value.
For another test, the system named is Puccinia recondita. Kind of test: Test Example E: Brown rust on wheat. As to conditions: Brown rust on wheat, read-out: Test E control value.
The next test concerns Phytophthora infestans. Briefly: whole plant or invertebrate. Conditions: in Solanum lycopersicum, read-out: Test F control value.
For a further test, the system named is Plasmopara viticola. Kind of test: Test Example G: Downy mildew on vine. As to conditions: Downy mildew on vine, 250 ppm sprayed, 2.5 ml/pot, 7 to 10 days after inoculation, read-out: Test G control value.

In the case of `CCn1c(-c2c(F)cc(F)cc2F)c(-n2cc(Cl)cn2)ccc1=O` [compound 27, 5-(4-chloro-1H-pyrazol-1-yl)-1-ethyl-6-(2,4,6-trifluorophenyl)-pyridin-2(1H)-one], the pest or weed control at 250 µg/mL was < 50% in the test on Magnaporthe grisea; > 50% in the test on Botrytis cinerea; > 50% in the test on Alternaia brassicicola; > 50% in test [1]; > 50% in the test with Puccinia recondita; < 50% with Phytophthora infestans. Moreover, the pest or weed control at 250 ppm in the test on Plasmopara viticola is < 50%.

For `CCn1c(-c2c(F)cccc2F)c(-c2cccs2)ccc1=O` [compound 5, 6-(2,6-difluorophenyl)-1-ethyl-5-(thiophen-2-yl)pyridin-2(1H)-one], the pest or weed control at 250 µg/mL (with Magnaporthe grisea; in the test with Botrytis cinerea; in the test with Alternaia brassicicola; in test [1]; in the test on Puccinia recondita; in the test with Phytophthora infestans) was > 50% each time. Further, the pest or weed control at 250 ppm in the test on Plasmopara viticola was > 50%.

For `CCn1c(-c2c(F)cc(F)cc2F)c(C2OCCCO2)cc(Cl)c1=O` [compound 8, 3-chloro-5-(1,3-dioxan-2-yl)-1-ethyl-6-(2,4,6-trifluorophenyl)-pyridin-2(1H)-one], the pest or weed control at 250 µg/mL in the test with Magnaporthe grisea is > 50%; in the test with Botrytis cinerea it was > 50%; in the test with Alternaia brassicicola it was > 50%; in test [1], < 50%; with Puccinia recondita, < 50%; in the test with Phytophthora infestans, < 50%. The pest or weed control at 250 ppm with Plasmopara viticola is > 50%.

Consider `CCn1c(-c2c(F)cccc2F)c(-c2cccnc2Cl)cc(Cl)c1=O` [compound 18], for which the pest or weed control at 250 µg/mL in the test on Magnaporthe grisea was > 50%; with Botrytis cinerea, > 50%; with Alternaia brassicicola it was > 50%; in test [1], > 50%; in the test with Puccinia recondita it was > 50%; with Phytophthora infestans, < 50%. Moreover, in the test on Plasmopara viticola, the pest or weed control at 250 ppm was < 50%.

Consider `CCn1c(-c2c(F)cc(F)cc2F)c(-n2cnc(Cl)c2Cl)ccc1=O` [compound 136, 5-(4,5-dichloro-1H-imidazol-1-yl)-1-ethyl-6-(2,4,6-trifluorophenyl)pyridin-2(1H)-one], for which the pest or weed control at 250 µg/mL is > 50% in the test with Magnaporthe grisea; > 50% in the test on Botrytis cinerea; > 50% in the test on Alternaia brassicicola; > 50% in test [1]; > 50% in the test with Puccinia recondita; < 50% in the test with Phytophthora infestans. For the same compound, the pest or weed control at 250 ppm in the test with Plasmopara viticola was > 50%.

Take `CCn1c(-c2c(F)cc(F)cc2F)c(-c2nn(C)cc2Br)cc(Cl)c1=O` [compound 24, 5-(4-bromo-1-methyl-1H-pyrazol-3-yl)-3-chloro-1-ethyl-6-(2,4,6-trifluorophenyl)pyridin-2(1H)-one]: the pest or weed control at 250 µg/mL with Magnaporthe grisea is > 50%; with Botrytis cinerea it was > 50%; with Alternaia brassicicola, > 50%; in test [1], > 50%; in the test on Puccinia recondita, > 50%; in the test with Phytophthora infestans, < 50%. Moreover, the pest or weed control at 250 ppm in the test on Plasmopara viticola was > 50%.

Take `CCn1c(-c2c(F)cc(OC)cc2F)c(-n2cc(Br)cn2)cc(Cl)c1=O` [compound 72, 5-(4-bromo-1H-pyrazol-1-yl)-3-chloro-6-(2,6-difluoro-4-methoxyphenyl)-1-ethylpyridin-2(1H)-one]: the pest or weed control at 250 µg/mL in the test on Magnaporthe grisea is > 50%; in the test on Botrytis cinerea it was > 50%; with Alternaia brassicicola it was > 50%; in test [1] it was > 50%; with Puccinia recondita, > 50%; in the test on Phytophthora infestans it was < 50%. Further, the pest or weed control at 250 ppm with Plasmopara viticola was < 50%.

For `CCn1c(-c2c(F)cccc2F)c(-c2c[nH]cc2C#N)cc(Cl)c1=O` [compound 88, 4-(5-chloro-1-ethyl-6-oxo-2-(2,6-difluorophenyl)-1,6-dihydro-pyridin-3-yl)-1H-pyrrol-3-carbonitrile], the pest or weed control at 250 µg/mL in the test on Magnaporthe grisea is < 50%; with Botrytis cinerea, < 50%; in the test on Alternaia brassicicola, > 50%; in test [1], < 50%; in the test with Puccinia recondita it was < 50%; in the test with Phytophthora infestans, < 50%. The pest or weed control at 250 ppm in the test with Plasmopara viticola is < 50%.

`CCn1c(-c2c(F)cc(F)cc2F)c(-n2cncn2)cc(Cl)c1=O` [compound 34, 3-chloro-1-ethyl-5-(1H-1,2,4-triazol-1-yl)-6-(2,4,6-trifluorophenyl)pyridin-2(1H)-one]: the pest or weed control at 250 µg/mL is > 50% in the test with Magnaporthe grisea; > 50% in the test with Botrytis cinerea; > 50% with Alternaia brassicicola; > 50% in test [1]; > 50% in the test with Puccinia recondita; < 50% in the test with Phytophthora infestans. Besides, in the test on Plasmopara viticola, the pest or weed control at 250 ppm was < 50%.

Consider `CCn1c(-c2c(F)cccc2F)c(-c2ocnc2C)cc(Cl)c1=O` [compound 43, 3-chloro-6-(2,6-difluorophenyl)-1-ethyl-5-(4-methyloxazol-5-yl)pyridin-2(1H)-one], for which the pest or weed control at 250 µg/mL was > 50% with Magnaporthe grisea; > 50% with Botrytis cinerea; > 50% with Alternaia brassicicola; > 50% in test [1]; > 50% with Puccinia recondita; < 50% in the test on Phytophthora infestans. The pest or weed control at 250 ppm with Plasmopara viticola is < 50%.

Consider `CCn1c(-c2c(F)cc(F)cc2F)c(-n2cc(Br)cn2)cc(Cl)c1=O` [compound 70, 5-(4-bromo-1H-pyrazol-1-yl)-3-chloro-1-ethyl-6-(2,4,6-trifluorophenyl)pyridin-2(1H)-one], for which the pest or weed control at 250 µg/mL with Magnaporthe grisea is > 50%; in the test on Botrytis cinerea it was > 50%; in the test with Alternaia brassicicola, > 50%; in test [1], > 50%; in the test on Puccinia recondita, > 50%; in the test on Phytophthora infestans it was < 50%. The pest or weed control at 250 ppm in the test with Plasmopara viticola was < 50%.

Take `CCn1c(-c2c(F)cc(F)cc2F)c(-c2c(Br)cnn2C)cc(Cl)c1=O` [compound 21, 5-(4-bromo-1-methyl-1H-pyrazol-5-yl)-3-chloro-1-ethyl-6-(2,4,6-trifluorophenyl)pyridin-2(1H)-one]: the pest or weed control at 250 µg/mL in the test on Magnaporthe grisea is > 50%; in the test on Botrytis cinerea, > 50%; with Alternaia brassicicola it was > 50%; in test [1] it was > 50%; in the test with Puccinia recondita, > 50%; in the test on Phytophthora infestans, < 50%. For the same compound, the pest or weed control at 250 ppm in the test on Plasmopara viticola is > 50%.

Consider `CCn1c(-c2c(F)cc(F)cc2F)c(-n2cc(Cl)cn2)cc(Br)c1=O` [compound 71, 5-(4-chloro-1H-pyrazol-1-yl)-1-ethyl-3-bromo-6-(2,4,6-trifluoro-phenyl)pyridin-2(1H)-one], for which the pest or weed control at 250 µg/mL was > 50% in the test with Magnaporthe grisea; > 50% in the test with Botrytis cinerea; > 50% in the test on Alternaia brassicicola; > 50% in test [1]; > 50% in the test with Puccinia recondita; < 50% in the test on Phytophthora infestans. Also, the pest or weed control at 250 ppm with Plasmopara viticola is < 50%.

Consider `CCn1c(-c2c(F)cc(F)cc2F)c(-n2cc(Cl)cn2)cc(Cl)c1=O` [compound 40, 3-chloro-5-(4-chloro-1H-pyrazol-1-yl)-1-ethyl-6-(2,4,6-trifluoro-phenyl)pyridin-2(1H)-one], for which the pest or weed control at 250 µg/mL in the test on Magnaporthe grisea was > 50%; in the test with Botrytis cinerea, > 50%; with Alternaia brassicicola, > 50%; in test [1], > 50%; in the test on Puccinia recondita, > 50%; in the test with Phytophthora infestans it was < 50%. Moreover, the pest or weed control at 250 ppm in the test with Plasmopara viticola was < 50%.

Regarding `CCn1c(-c2c(F)cc(F)cc2F)c(-n2cnc(Cl)c2Cl)cc(Cl)c1=O` [compound 138, 3-chloro-5-(4,5-dichloro-1H-imidazol-1-yl)-1-ethyl-6-(2,4,6-trifluorophenyl)pyridin-2(1H)-one], the pest or weed control at 250 µg/mL was > 50% with Magnaporthe grisea; > 50% with Botrytis cinerea; > 50% in the test with Alternaia brassicicola; > 50% in test [1]; > 50% in the test on Puccinia recondita; < 50% in the test on Phytophthora infestans. For the same compound, the pest or weed control at 250 ppm with Plasmopara viticola is < 50%.

Consider `CCn1c(-c2c(F)cc(F)cc2F)c(-c2ccnn2C)cc(Cl)c1=O` [compound 20, 3-chloro-1-ethyl-5-(1-methyl-1H-pyrazol-5-yl)-6-(2,4,6-trifluorophenyl)pyridin-2(1H)-one], for which the pest or weed control at 250 µg/mL is > 50% in the test on Magnaporthe grisea; > 50% in the test with Botrytis cinerea; > 50% in the test with Alternaia brassicicola; > 50% in test [1]; > 50% with Puccinia recondita; < 50% in the test with Phytophthora infestans. The pest or weed control at 250 ppm in the test on Plasmopara viticola was < 50%.

Turning to `CCN1C(=O)CCC(n2cccn2)=C1c1c(F)cc(F)cc1F` [compound 25, 1-ethyl-5-(1H-pyrazol-1-yl)-6-(2,4,6-trifluorophenyl)-3,4-dihydropyridin-2(1H)-one], the pest or weed control at 250 µg/mL is < 50% in the test on Magnaporthe grisea; < 50% with Botrytis cinerea; > 50% in the test with Alternaia brassicicola; > 50% in test [1]; < 50% in the test with Puccinia recondita; < 50% in the test with Phytophthora infestans. Moreover, the pest or weed control at 250 ppm in the test on Plasmopara viticola was < 50%.
